Data: article PMC11784013, “Potassium molybdate blocks APN-dependent coronavirus entry by degrading receptor via PIK3C3-mediated autophagy” (Journal of Virology, 2024)

Legend:
ST cells = test: Cell Counting Kit 8 cytotoxicity assay in ST cells; type: cell-based, swine; conditions: PM at concentrations less than 30 mM, 24 h
Method: (§1) Fig 1 PM inhibits TGEV and PRCV infection in ST cells. (A) A cytotoxicity assay of PM in ST cells. ST cells cultured in a 96-well plate were incubated with different concentrations of PM for 24 h, which was tested by Cell Counting Kit 8. (B) Time course for PM inhibiting TGEV or PRCV or PEDV infection assay. (C–F) The ST cells, pretreated with PM at the indicated concentrations for 1 h were infected with TGEV Miller (0.1 MOI) or PRCV (0.1 MOI) for 1 h and were again treated with PM at 37°C for 17 h. The cell samples were collected and examined by real-time quantitative PCR (RT-qPCR), TCID50, western blot (C and D), and immunofluorescence assay (IFA) (E and F), scale bar: 50 µm. (G) Vero-E6 cells were treated with indicated PM and infected with PEDV LJX 01/2014 according to the time course of Fig. 1B, which was detected by TCID50 and western blot. Results are presented as mean ± SD of data from three independent experiments. ns, no significant; **, P ≤ 0.01; ***, P ≤ 0.001.
ST cells or intestinal organoids cultured in a 96-well plate were incubated with different concentrations of PM (0, 0.1, 0.25, 0.5, 1, 2.5, 5, 10, 20, and 30 mM) for 24 h. […] The absorbance of each well was then measured at 450 nm using a microplate reader to determine cell viability.

PRCV = PRCV infection of ST cells (RT-qPCR, TCID50, western blot, IFA); type: cell-based, porcine respiratory coronavirus; conditions: PRCV 0.1 MOI; for PRCV N level, western blot, relative to WT without PM (=1): PM 10 mM, 16 h
Method: as §1
Fig 3 PM inhibits TGEV and PRCV infection by potassium ion and molybdate synergy. (A and B) The ST cells, pretreated with potassium chloride (KCl) or sodium molybdate (Na2MoO4) at the indicated concentrations for 1 h were infected with TGEV Miller (0.1 MOI) for 1 h and were again treated with KCl or Na2MoO4 at 37°C for 17 h. The cell samples were measured by RT-qPCR. (C and D) ST cells were treated with PM (K2MoO4, 10 mM), KCl (20 mM), Na2MoO4 (10 mM), sodium chloride (NaCl, 10 mM), K2MoO4 (10 mM), and NaCl (20 mM) as well as Na2MoO4 (10 mM) and KCl (20 mM) for 1 h and then infected with TGEV Miller (0.1 MOI) or PRCV (0.1 MOI) for 17 h, which was determined by RT-qPCR and TCID50. Results are presented as mean ± SD of data from three independent experiments. ***, P ≤ 0.001; ns, no significance.
Total RNA was extracted using RNAiso reagent (TaKaRa, Japan, 9109) and reverse transcribed into cDNA using HiScript Q RT SuperMix for qPCR (Vazyme, China, R223-01), both of which followed the manufacturer’s recommendations. The TGEV and PRCV virus copy numbers were detected by the TaqMan probe-based RT-qPCR method developed previously in our laboratory ([59]). Relative qPCR was also performed using ChamQ SYBR qPCR master mix (Vazyme, China, Q311-02), and the results were calculated via the 2^-ΔΔCT method.
Fig. S8. PM inhibits PRCV infection by degrading APN via PIK3C3-mediated autophagy. (A-C) WT ST cells and PIK3C3 KO ST cells were treated with PM (10 mM) and infected with PRCV (0.1 MOI) for 16 h. Then the APN, PIK3C3, ATG14, BECN1, P62, PRCV N and LC3 were detected by western blot (A), and viral titers and PRCV N mRNA level were determined by TCID50 (B) and RT-qPCR (C) . (D-F) WT ST cells and PIK3C3 KO ST cells transfected with pCMV-Myc and pCMV-Myc-PIK3C3 respectively for 24 h were treated with PM (10 mM) and infected with PRCV (0.1 MOI) for 16 h. The APN, PIK3C3, P62, PRCV N and LC3 were determined by western blot (D). TCID50 (E) and RT-qPCR (F) were performed to detect viral titers and PRCV N m RNA level. All western blot results were calculated by Image J. Results are presented as mean ± SD of data from three independent experiments (also on this page, place not known: 6 8 10 12 Viral load(log copies/ul) *** 2 4 6 8 log10 TCID50/ml *** 6 8 10 12 + Viral load(log copies/ul) PIK3C3-Myc + - + + + *** *** 2 4 6 8 log10 TCID50/ml *** + + + + PIK3C3-Myc - - - + - + + + *** WT KO PM (C). WT KO PM PRCV PM - + + PRCV + + + WT PIK3C3 KO PIK3C3 PRCV PIK3C3-Myc - - - + PM - + + + PRCV + + + + WT PIK3C3 KO 0 0) […]

[1] = system: autophagosomes and autolysosomes; test: Autophagic flux (RFP-EGFP-LC3B sensor) and transmission electron microscopy in ST cells; type: cell-based, swine
Method: Fig 6 PM degrades APN by autophagy-lysosome pathway. (A) ST cells were treated with PM (10 mM) and infected with TGEV (0.1 MOI) in the presence and absence of MG132 (20 µM), 3-MA (20 mM), and Z-VAD-FMK (20 µM) for 16 h. The APN expression and TGEV N were detected by western blot. (B) ST cells were treated with PM (10 mM) at 2, 4, 8, and 16 h, autophagy markers P62 and LC3, and APN were measured by western blot. (C) ST cells were transfected with RFP-EGFP-LC3B for 12 h and then treated with PM (10 mM) or H2O for 36 h. The fluorescence of GFP and RFP was detected by confocal microscopy, scale bar: 5 µm. (D) Quantification of autophagosomes (Merge) and autolysosomes (RFP) from C using Image J software. (E) ST cells were treated with PM or H2O for 24 h. The autophagosomes (yellow arrow) and autolysosomes (asterisk) were detected by transmission electron microscope, scale bar: 2 µm. (F) The number of autophagosomes (yellow arrow) and autolysosomes (asterisk) was quantified. All western blot results were calculated by Image J. Results are presented as mean ± SD of data from three independent experiments. ***, P ≤ 0.001.

[K+].[K+].[O]=[Mo](=[O])([O-])[O-] [PM, potassium molybdate]
cytotoxicity (Cell Counting Kit 8) (ST cells): did not exhibit significant cytotoxicity
PRCV N level, western blot, relative to WT without PM (=1) (PRCV; Fig. S8A, PIK3C3 KO ST cells): 0.81
PRCV N level, western blot, relative to WT without PM (=1) (PRCV; Fig. S8A, WT ST cells): 0
PRCV N level, western blot, relative to WT without PM (=1) (PRCV; Fig. S8D, PIK3C3 KO ST cells with PIK3C3-Myc): 0
PRCV N level, western blot, relative to WT without PM (=1) (PRCV; Fig. S8D, PIK3C3 KO ST cells without PIK3C3-Myc): 0.78
PRCV N level, western blot, relative to WT without PM (=1) (PRCV; Fig. S8D, WT ST cells with pCMV-Myc): 0
PRCV infection (PRCV; ST cells, PM 1 h pretreatment and 17 h after infection, RT-qPCR, TCID50, western blot, IFA): effectively restricted
autophagic flux (RFP-EGFP-LC3B sensor) ([1]; PM 10 mM, 36 h, confocal microscopy): increased RFP signals (autolysosomes) and merge signals (autophagosomes)
autophagosomes and autolysosomes by transmission electron microscopy ([1]; PM vs H2O, 24 h): formed more autophagosomes
